Laboratory results reported in US6737431B2 (Bristol-Myers Squibb Company, priority 2002, dated 2004).

Experiments:
[1] = biological target: T1, melatonin ML1b receptor (Homo sapiens, UniProt P49286); assay: Melatonergic receptor binding, 2-[125I]-iodomelatonin, ML1b; settings: NIH-3T3 membranes, 0.2 nM 2-[125I]-iodomelatonin, 37° C. 1 hour
T1 construct: expressed in transfected cells; membrane homogenates
T1 sequence (P49286 1-362): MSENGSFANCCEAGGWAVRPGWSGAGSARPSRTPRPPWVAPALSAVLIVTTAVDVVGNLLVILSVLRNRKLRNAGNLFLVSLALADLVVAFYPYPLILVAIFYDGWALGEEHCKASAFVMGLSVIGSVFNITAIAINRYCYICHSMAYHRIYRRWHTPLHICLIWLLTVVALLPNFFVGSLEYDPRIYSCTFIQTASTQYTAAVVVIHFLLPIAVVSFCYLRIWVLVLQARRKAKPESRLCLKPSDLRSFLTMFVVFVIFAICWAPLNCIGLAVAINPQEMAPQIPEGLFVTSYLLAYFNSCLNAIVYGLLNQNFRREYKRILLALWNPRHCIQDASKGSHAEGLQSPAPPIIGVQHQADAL
Procedure: (§1) Melatonergic Receptor Binding Activity
(§2) (a) TME=50 mM Tris buffer containing 12.5 mM MgCl2, and 2 mM EDTA, pH 7.4 at 37° C., with concentrated HCl.
(§3) (b) Wash buffer: 20 mM Tris base containing 2 mM MgCl2, pH 7.4 at room temperature.
(§4) (c) 10^−4 M melatonin (10^−5 M final concentration).
(e) 2-[^125I]-iodomelatonin ML1b, 0.2 nM final concentration.
(§5) 2. Membrane Homogenates: The melatonin ML1a and ML1b receptors cDNA were individually subcloned into pcDNA3 and introduced into NIH-3T3 cells using Lipofectamine. Transformed NIH-3T3 cells resistant to geneticin (G-418) were isolated, and single colonies expressing high levels of 2[^125I]-iodomelatonin binding were isolated. Cells are maintained in DMEM supplemented with 10% calf serum and G-418 (0.5 g/liter). Cells are grown to confluency in T-175 flasks, scraped using Hank's balanced salt solution, and frozen at −80° C. For preparing membrane homogenates, pellets are thawed on ice, and re-suspended in TME buffer in the presence of 10 μg/ml aprotinin and leupeptin, and 100 μM phenylmethylsulfonylfluoride. The cells were then homogenized using a dounce homogenizer, and centrifuged. The resulting pellet was re-suspended with dounce homogenizer in TME (supplemented with the above protease inhibitors) and frozen. On the day of assay, a small aliquot was thawed on ice and re-suspended in the ice cold TME (1:50-1:100 v/v) and held on ice until assayed.
(§6) 3. Incubation: 37° C. for 1 hour. Reaction is terminated by filtration. Filters were washed 3 times.
(§7) 4. References: Reppert, S. M. et al., Neuron, 13, p. 1177-1185 (1994); and Reppert, S. M. et al., Proc. Natl. Acad. Sci. USA, 92, p. 8734-8738 (1995).
(§8) The compounds of the present invention have affinity for receptors of the endogenous pineal hormone, melatonin, as determined in receptor binding assays described above in Tables I to III for the ML1a and ML1b (human) receptors. Melatonin is involved in the regulation of a variety of biological rhythms and exerts its biological effects via interaction with specific receptors. There is evidence that administration of melatonin agonists are of clinical utility in the treatment of various conditions regulated by melatonin activity. Such conditions include depression, jet-lag, work-shift syndrome, sleep disorders, glaucoma, some disorders associated with reproduction, cancer benign prostatic hyperplasia, immune disorders, and neuroendocrine disorders.

[2] = biological target: T2, melatonin ML1a receptor (Homo sapiens, UniProt P48039); assay: Melatonergic receptor binding, 2-[125I]-iodomelatonin, ML1a; settings: Table I; NIH-3T3 membranes, 0.1 nM 2-[125I]-iodomelatonin, 37° C. 1 hour
T2 construct: expressed in transfected cells; membrane homogenates
T2 sequence (P48039 whole entry): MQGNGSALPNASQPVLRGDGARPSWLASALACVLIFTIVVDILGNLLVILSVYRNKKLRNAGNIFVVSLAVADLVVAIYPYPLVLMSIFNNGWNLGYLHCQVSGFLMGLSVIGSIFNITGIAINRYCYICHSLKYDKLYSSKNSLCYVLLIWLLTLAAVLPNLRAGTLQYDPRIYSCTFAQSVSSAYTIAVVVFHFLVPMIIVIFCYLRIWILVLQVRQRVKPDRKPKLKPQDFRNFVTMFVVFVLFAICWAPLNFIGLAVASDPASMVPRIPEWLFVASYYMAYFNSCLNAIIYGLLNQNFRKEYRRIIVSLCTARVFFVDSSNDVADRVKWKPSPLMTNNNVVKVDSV
Procedure: as §1, §2, §3, §4
(d) 2-[^125I]-iodomelatonin ML1a, 0.1 nM final concentration.
as §5, §6, §7, §8

CC(=O)NCCCc1cccc2nc(C)oc12 [Example 1, N-[3-(2-Methyl-7-benzoxazolyl)propyl]acetamide]
IC50 ([1]; Table I): 10 to 250 nM | IC50 [2]: 10 to 250 nM

CCC(=O)NCCCc1cccc2nc(C)oc12 [Example 2, N-[3-(2-Methyl-7-benzoxazolyl)propyl]propanamide]
IC50 ([1]; Table I): < 10 nM | IC50 [2]: < 10 nM

CCCC(=O)NCCCc1cccc2nc(C)oc12 [Example 3, N-[3-(2-Methyl-7-benzoxazolyl)propyl]butanamide]
IC50 ([1]; Table I): < 10 nM | IC50 [2]: < 10 nM

Cc1nc2cccc(CCCNC(=O)C3CC3)c2o1 [Example 4, N-[3-(2-Methyl-7-benzoxazolyl)propyl]cyclopropanecarboxamide]
IC50 ([1]; Table I): < 10 nM | IC50 [2]: < 10 nM

Cc1nc2cccc(CCCNC(=O)C(C)C)c2o1 [Example 5, N-[3-(2-Methyl-7-benzoxazolyl)propyl]-2-methylpropanamide]
IC50 ([1]; Table I): < 10 nM | IC50 [2]: < 10 nM

CCNC(=O)NCCCc1cccc2nc(C)oc12 [Example 6, (Ethylamino)-N-[3-(2-methylbenzoxazol-7-yl)propyl]carboxamide]
IC50 ([1]; Table I): 10 to 250 nM | IC50 [2]: 10 to 250 nM

CCc1nc2cccc(CCCNC(C)=O)c2o1 [Example 7, N-[3-(2-Ethylbenzoxazol-7-yl)propyl]acetamide]
IC50 ([1]; Table I): < 10 nM | IC50 [2]: 10 to 250 nM

CCC(=O)NCCCc1cccc2nc(CC)oc12 [Example 8, N-[3-(2-Ethylbenzoxazol-7-yl)propyl]propanamide]
IC50 ([1]; Table I): < 10 nM | IC50 [2]: < 10 nM

CCCC(=O)NCCCc1cccc2nc(CC)oc12 [Example 9, N-[3-(2-Ethylbenzoxazol-7-yl)propyl]butanamide]
IC50 ([1]; Table I): < 10 nM | IC50 [2]: 10 to 250 nM

CCc1nc2cccc(CCCNC(=O)C(C)C)c2o1 [Example 10, N-[3-(2-Ethylbenzoxazol-7-yl)propyl]-2-methylpropanamide]
IC50 ([1]; Table I): 10 to 250 nM | IC50 [2]: 10 to 250 nM

CCc1nc2cccc(CCCNC(=O)C3CC3)c2o1 [Example 11, Cyclopropyl-N-[3-(2-ethylbenzoxazol-7-yl)propyl]carboxamide]
IC50 ([1]; Table I): 10 to 250 nM | IC50 [2]: < 10 nM

CCNC(=O)NCCCc1cccc2nc(CC)oc12 [Example 12, (Ethylamino)-N-[3-(2-ethylbenzoxazol-7-yl)propyl]carboxamide]
IC50 ([1]; Table I): 10 to 250 nM | IC50 [2]: 10 to 250 nM

CCCc1nc2cccc(CCCNC(C)=O)c2o1 [Example 13, N-[3-(2-Propylbenzoxazol-7-yl)propyl]acetamide]
IC50 ([1]; Table I): 10 to 250 nM | IC50 [2]: > 250 nM

CCCc1nc2cccc(CCCNC(=O)CC)c2o1 [Example 14, N-[3-(2-Propylbenzoxazol-7-yl)propyl]propanamide]
IC50 ([1]; Table I): 10 to 250 nM | IC50 [2]: 10 to 250 nM

CCCC(=O)NCCCc1cccc2nc(CCC)oc12 [Example 15, N-[3-(2-Propylbenzoxazol-7-yl)propyl]butanamide]
IC50 ([1]; Table I): 10 to 250 nM | IC50 [2]: > 250 nM

CCCc1nc2cccc(CCCNC(=O)C(C)C)c2o1 [Example 16, 2-Methyl-N-[3-(2-propylbenzoxazol-7-yl)propyl]propanamide]
IC50 ([1]; Table I): 10 to 250 nM | IC50 [2]: 10 to 250 nM

CCCc1nc2cccc(CCCNC(=O)C3CC3)c2o1 [Example 17, Cyclopropyl-N-[3-(2-propylbenzoxazol-7-yl)propyl]carboxamide]
IC50 ([1]; Table I): 10 to 250 nM | IC50 [2]: 10 to 250 nM

CCCc1nc2cccc(CCCNC(=O)NCC)c2o1 [Example 18, (Ethylamino)-N-[3-(2-propylbenzoxazol-7-yl)propyl]carboxamide]
IC50 ([1]; Table I): 10 to 250 nM | IC50 [2]: > 250 nM

CC(=O)NCCCc1cccc2nc(-c3ccccc3)oc12 [Example 19, N-[3-(2-Phenylbenzoxazol-7-yl)propyl]acetamide]
IC50 ([1]; Table I): 10 to 250 nM | IC50 [2]: 10 to 250 nM

CCC(=O)NCCCc1cccc2nc(-c3ccccc3)oc12 [Example 20, N-[3-(2-Phenylbenzoxazol-7-yl)propyl]propanamide]
IC50 ([1]; Table I): 10 to 250 nM | IC50 [2]: 10 to 250 nM

CCCC(=O)NCCCc1cccc2nc(-c3ccccc3)oc12 [Example 21, N-[3-(2-Phenylbenzoxazol-7-yl)propyl]butanamide]
IC50 ([1]; Table I): 10 to 250 nM | IC50 [2]: 10 to 250 nM

CC(C)C(=O)NCCCc1cccc2nc(-c3ccccc3)oc12 [Example 22, 2-Methyl-N-[3-(2-phenylbenzoxazol-7-yl)propyl]propanamide]
IC50 ([1]; Table I): 10 to 250 nM | IC50 [2]: 10 to 250 nM

O=C(NCCCc1cccc2nc(-c3ccccc3)oc12)C1CC1 [Example 23, Cyclopropyl-N-[3-(2-phenylbenzoxazol-7-yl)propyl]carboxamide]
IC50 ([1]; Table I): 10 to 250 nM | IC50 [2]: 10 to 250 nM

CCNC(=O)NCCCc1cccc2nc(-c3ccccc3)oc12 [Example 24, (Ethylamino)-N-[3-(2-phenylbenzoxazol-7-yl)propyl]carboxamide]
IC50 ([1]; Table I): 10 to 250 nM | IC50 [2]: > 250 nM

CC(=O)NCCCc1cccc2nc(CCCCc3ccccc3)oc12 [Example 25, N-{3-[2-(4-Phenylbutyl)benzoxazol-7-yl]propyl}acetamide]
IC50 ([1]; Table I): 10 to 250 nM | IC50 [2]: < 10 nM

CCC(=O)NCCCc1cccc2nc(CCCCc3ccccc3)oc12 [Example 26, N-{3-[2-(4-Phenylbutyl)benzoxazol-7-yl]propyl}propanamide]
IC50 ([1]; Table I): 10 to 250 nM | IC50 [2]: < 10 nM

CCCC(=O)NCCCc1cccc2nc(CCCCc3ccccc3)oc12 [Example 27, N-{3-[2-(4-Phenylbutyl)benzoxazol-7-yl]propyl}butanamide]
IC50 ([1]; Table I): 10 to 250 nM | IC50 [2]: < 10 nM

CC(C)C(=O)NCCCc1cccc2nc(CCCCc3ccccc3)oc12 [Example 28, 2-Methyl-N-{3-[2-(4-phenylbutyl)benzoxazol-7-yl]propyl}propanamide]
IC50 ([1]; Table I): 10 to 250 nM | IC50 [2]: < 10 nM

O=C(NCCCc1cccc2nc(CCCCc3ccccc3)oc12)C1CC1 [Example 29, Cyclopropyl-N-{3-[2-(4-phenylbutyl)benzoxazol-7-yl]propyl}carboxamide]
IC50 ([1]; Table I): 10 to 250 nM | IC50 [2]: < 10 nM

CCNC(=O)NCCCc1cccc2nc(CCCCc3ccccc3)oc12 [Example 30, (Ethylamino)-N-{3-[2-(4-phenylbutyl)benzoxazol-7-yl]propyl}carboxamide]
IC50 ([1]; Table I): 10 to 250 nM | IC50 [2]: < 10 nM

CC(=O)NCCCc1cccc2ncoc12 [Example 31, N-(3-Benzoxazol-7-ylpropyl)acetamide]
IC50 ([1]; Table I): 10 to 250 nM | IC50 [2]: 10 to 250 nM

CCC(=O)NCCCc1cccc2ncoc12 [Example 32, N-(3-Benzoxazol-7-ylpropyl)propanamide]
IC50 ([1]; Table I): < 10 nM | IC50 [2]: 10 to 250 nM

CC(C)C(=O)NCCCc1cccc2ncoc12 [Example 33, N-(3-Benzoxazol-7-ylpropyl)-2-methylpropanamide]
IC50 ([1]; Table I): < 10 nM | IC50 [2]: 10 to 250 nM

CC(=O)NCCCc1cccc2nc(C(C)C)oc12 [Example 34, N-{3-[2-(Methylethyl)benzoxazol-7-yl]propyl}acetamide]
IC50 ([1]; Table I): 10 to 250 nM | IC50 [2]: 10 to 250 nM

CCC(=O)NCCCc1cccc2nc(C(C)C)oc12 [Example 35, N-{3-[2-(Methylethyl)benzoxazol-7-yl]propyl}propanamide]
IC50 ([1]; Table I): 10 to 250 nM | IC50 [2]: 10 to 250 nM

CCCC(=O)NCCCc1cccc2nc(C(C)C)oc12 [Example 36, N-{3-[2-(Methylethyl)benzoxazol-7-yl]propyl}butanamide]
IC50 ([1]; Table I): 10 to 250 nM | IC50 [2]: 10 to 250 nM

CC(C)C(=O)NCCCc1cccc2nc(C(C)C)oc12 [Example 37, 2-Methyl-N-{3-[2-(methylethyl)benzoxazol-7-yl]propyl}propanamide]
IC50 ([1]; Table I): 10 to 250 nM | IC50 [2]: 10 to 250 nM

CCc1nc2ccc(-c3ccco3)c(CCCNC(=O)c3ccccc3)c2o1 [Example 74, N-[3-(2-Ethyl-6-(2-furyl)benzoxazol-7-yl)propyl]benzamide]
IC50 ([1]; Table II): > 250 nM
